# Patent US20200317636A1, “DEUTERATED AZOLE COMPOUNDS AND PREPARATION METHOD THEREFOR AND USES THEREOF” (priority 2017, published 2020)
# Where two headings read alike, the source gives them in different places.
# Tests used:
# [1] = test system: Candida albicans (standard strain SC5314); experiment: In vitro bacteriostatic experiment (minimum in vitro antifungal concentration, MIC80); assay type: cell-based
# Protocol: (I) Experimental method: The conventional in vitro bacteriostatic experiment method was adopted (for details, see: Antimicrob Agents Chemother 1995, 39 (5): 1169).
# The fungal strain selected for this experiment was provided by the Fungal Department of Shanghai Changzheng Hospital (or purchased from the Institute of Materia Medica, Chinese Academy of Sciences).
# Candida albicans (standard strain SC5314)
# Preparation of bacterial suspension: The above fungi were cultured in YEPD liquid medium at 35° C. for 16 hours, activated twice, counted with a blood cell counting plate, and the bacteria concentration was adjusted to 1*10^4 to 1*10^5 cells/mL with RPM1640 liquid medium.
# Preparation of drug solution: The test compound of the invention was dissolved in dimethyl sulfoxide to prepare a 0.8 mg/mL drug storage solution, and the 0.8 mg/mL drug storage solution was diluted to 8 μg/mL with RPM1640 before the experiment.
# Inoculation: RPM1640 100 μL was added as a blank control in well 1 of the 96-well plate; 100 μL of the bacterial suspension was added in each of wells 3-12, 200 μL of the bacterial suspension and 2 μL of the drug solution were added in well 2 and the drug solution in wells 2-11 was diluted […], and the drug concentrations of these wells were 8, 4, 2, 1, 0.5, 0.25, 0.125, 0.0625, 0.0313, and 0.0156 μg/mL, respectively. No drug solution was added in well 12 to make positive control. The drug control was fluconazole.
# [2] = human, microsomes
# in vitro = settings: human, microsomes
# [3] = Candida albicans, SC5314, read-out: Minimum in vitro antifungal concentration (MIC80)
smiles,measurement,setting,value
[2H]C(Oc1ccc(C#Cc2ccc(C(F)(F)[C@](O)(Cn3cnnn3)c3ccc(F)cc3F)nc2)cc1)c1ccc(C#N)cc1 (stereo partly drawn) [Compound D1],MIC80,[1]; [3],0.0156 µg/mL
[2H]C([2H])(Oc1ccc(C#Cc2ccc(C(F)(F)[C@](O)(Cn3cnnn3)c3ccc(F)cc3F)nc2)cc1)c1ccc(C#N)cc1 [Compound D2],MIC80,[1]; [3],0.0156 µg/mL
[2H]C([2H])(n1cnnn1)C(O)(c1ccc(F)cc1F)C(F)(F)c1ccc(C#Cc2ccc(OCc3ccc(C#N)cc3)cc2)cn1 (stereo not drawn) [Compound D3],MIC80,[1]; [3],0.0313 µg/mL
[2H]c1nnnn1CC(O)(c1ccc(F)cc1F)C(F)(F)c1ccc(C#Cc2ccc(OCc3ccc(C#N)cc3)cc2)cn1 (stereo not drawn) [Compound D5],MIC80,[1]; [3],0.0156 µg/mL
OC(Cn1cncn1)(Cn1cncn1)c1ccc(F)cc1F [Fluconazole],MIC80,"[1]; Candida albicans SC5314, RPM1640 medium, 96-well dilution 8-0.0156 μg/mL, read-out: Minimum in vitro antifungal concentration (MIC80)",0.5 µg/mL
Cc1ncc2n1-c1ccc(Cl)cc1C(c1ccccc1F)=NC2 [Midazolam],"CLint, microsome (in vitro intrinsic clearance)",[2],274 μL × min^−1 × mg^−1 proteins
same,k (clearance constant),[2],0.0548 min⁻¹
same,half-life,in vitro,0.212 h
N#Cc1ccc(COc2ccc(C#Cc3ccc(C(F)(F)[C@](O)(Cn4cnnn4)c4ccc(F)cc4F)nc3)cc2)cc1 [VT-1598],MIC80,[1]; [3],0.0156 µg/mL
same,"CLint, microsome (in vitro intrinsic clearance)",[2],10.6 μL × min^−1 × mg^−1 proteins
same,k (clearance constant),[2],0.0053 min⁻¹
same,half-life at 1 μM,in vitro,2.33 h
